Test results reported in patent publication US20100137305A1, “AMINOPYRIMIDINES USEFUL AS KINASE INHIBITORS” (VERTEX PHARMACEUTICALS INCORPORATED, priority 2008, published 2010).
Read-outs that look alike come from different tables or passages of the source.

Columns and labels:
Aurora-2 (Aurora A) = molecular target: T1, Aurora-2 (Aurora A) (Homo sapiens, UniProt O14965); assay: Aurora-2 (Aurora A) Inhibition Assay, coupled enzyme assay; format: biochemical; settings: 400 μM ATP, 30° C.; read-out: Aurora A kinase activity Ki
T1 sequence (O14965 1-403): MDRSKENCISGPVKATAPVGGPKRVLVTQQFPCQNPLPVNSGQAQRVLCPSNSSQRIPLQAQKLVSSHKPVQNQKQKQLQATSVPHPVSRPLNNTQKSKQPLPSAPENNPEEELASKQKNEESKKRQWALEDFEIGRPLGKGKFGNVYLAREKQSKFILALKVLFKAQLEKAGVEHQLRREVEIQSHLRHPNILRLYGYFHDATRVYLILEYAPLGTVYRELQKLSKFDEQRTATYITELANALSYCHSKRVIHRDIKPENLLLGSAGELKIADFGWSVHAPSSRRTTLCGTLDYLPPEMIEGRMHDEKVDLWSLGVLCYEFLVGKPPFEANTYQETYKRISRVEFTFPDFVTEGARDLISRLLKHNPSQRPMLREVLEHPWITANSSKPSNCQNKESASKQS
Method: Compounds were screened for their ability to inhibit Aurora-2 using a standard coupled enzyme assay (Fox et al., Protein Sci., (1998) 7, 2249). Assays were carried out in a mixture of 100 mM Hepes (pH7.5), 10 mM MgCl2, 1 mM DTT, 25 mM NaCl, 2.5 mM phosphoenolpyruvate, 300 μM NADH, 30 μg/ml pyruvate kinase and 10 μg/ml lactate dehydrogenase. Final substrate concentrations in the assay were 400 μM ATP (Sigma Chemicals) and 570 μM peptide (Kemptide, American Peptide, Sunnyvale, Calif.). Assays were carried out at 30° C. and in the presence of 40 nM Aurora-2.
An assay stock buffer solution was prepared containing all of the reagents listed above, with the exception of Aurora-2 and the test compound of interest. 55 μl of the stock solution was placed in a 96 well plate followed by addition of 2 μl of DMSO stock containing serial dilutions of the test compound (typically starting from a final concentration of 7.5 μM). The plate was preincubated for 10 minutes at 30° C. and the reaction initiated by addition of 10 μl of Aurora-2. Initial reaction rates were determined with a Molecular Devices SpectraMax Plus plate reader over a 10 minute time course. IC50 and Ki data were calculated from non-linear regression analysis using the Prism software package (GraphPad Prism version 3.0cx for Macintosh, GraphPad Software, San Diego Calif., USA).

Colo205 cells = assay: Analysis of Cell Proliferation, 3H thymidine incorporation; format: cell-based; settings: Homo sapiens
Method: Compounds were screened for their ability to inhibit cell proliferation using Colo205 cells obtained from ECACC and using the assay shown below.
Colo205 cells were seeded in 96 well plates and serially diluted compound was added to the wells in duplicate. Control groups included untreated cells, the compound diluent (0.1% DMSO alone) and culture medium without cells. The cells were then incubated for 72 or 96 hrs at 37C in an atmosphere of 5% CO2/95% humidity.
To measure proliferation, 3 h prior to the end of the experiment 0.5 μCi of 3H thymidine was added to each well. Cells were then harvested and the incorporated radioactivity counted on a Wallac microplate beta-counter. Dose response curves were calculated using either Prism 3.0 (GraphPad) or SoftMax Pro 4.3.1 LS (Molecular Devices) software.

[1] = molecular target: N-terminally truncated (Δ 27) Abl kinase (Homo sapiens, UniProt P00519); assay: Abl Kinase Activity Inhibition Assay, coupled enzyme system; format: biochemical; settings: 110 μM ATP, 30° C.
N-terminally truncated (Δ 27) Abl kinase, sequence (P00519 whole entry, stated change not applied, the tested form may be a part): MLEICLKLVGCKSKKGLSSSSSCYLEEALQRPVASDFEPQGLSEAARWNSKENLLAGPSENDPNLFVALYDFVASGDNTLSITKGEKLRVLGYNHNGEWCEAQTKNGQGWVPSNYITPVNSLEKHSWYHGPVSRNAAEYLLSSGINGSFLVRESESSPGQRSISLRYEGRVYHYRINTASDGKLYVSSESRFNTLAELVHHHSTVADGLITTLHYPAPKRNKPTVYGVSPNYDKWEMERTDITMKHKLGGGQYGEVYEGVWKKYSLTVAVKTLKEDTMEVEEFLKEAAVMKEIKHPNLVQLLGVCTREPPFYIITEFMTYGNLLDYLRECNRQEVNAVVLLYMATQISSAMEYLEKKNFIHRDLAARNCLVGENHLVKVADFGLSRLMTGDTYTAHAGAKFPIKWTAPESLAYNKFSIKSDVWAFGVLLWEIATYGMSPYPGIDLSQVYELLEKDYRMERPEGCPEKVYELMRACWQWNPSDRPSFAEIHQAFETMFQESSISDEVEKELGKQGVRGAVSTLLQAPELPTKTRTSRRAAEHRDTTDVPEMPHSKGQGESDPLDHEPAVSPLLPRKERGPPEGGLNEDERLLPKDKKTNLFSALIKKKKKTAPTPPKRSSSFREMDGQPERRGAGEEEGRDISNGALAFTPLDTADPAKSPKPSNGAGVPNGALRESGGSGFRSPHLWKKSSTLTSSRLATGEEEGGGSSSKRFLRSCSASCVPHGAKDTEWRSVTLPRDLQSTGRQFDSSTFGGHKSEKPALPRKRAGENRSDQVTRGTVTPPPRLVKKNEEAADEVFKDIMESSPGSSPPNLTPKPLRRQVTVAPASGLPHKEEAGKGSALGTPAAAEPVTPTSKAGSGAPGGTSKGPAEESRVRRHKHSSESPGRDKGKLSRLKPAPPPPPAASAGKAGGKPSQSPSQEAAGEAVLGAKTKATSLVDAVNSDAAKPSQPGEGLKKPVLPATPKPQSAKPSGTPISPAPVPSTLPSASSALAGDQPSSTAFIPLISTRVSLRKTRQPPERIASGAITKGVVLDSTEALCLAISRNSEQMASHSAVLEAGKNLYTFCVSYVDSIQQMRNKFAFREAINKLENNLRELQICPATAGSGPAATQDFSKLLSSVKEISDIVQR
Method: Compounds were screened for their ability to inhibit N-terminally truncated (Δ 27) Abl kinase activity using a standard coupled enzyme system (Fox et al., Protein Sci., 7, pp. 2249 (1998)). Reactions were carried out in a solution containing 100 mM HEPES (pH 7.5), 10 mM MgCl2, 25 mM NaCl, 300 μM NADH, 1 mM DTT and 3% DMSO. Final substrate concentrations in the assay were 110 μM ATP (Sigma Chemicals, St Louis, Mo.) and 70 μM peptide (EAIYAAPFAKKK, American Peptide, Sunnyvale, Calif.). Reactions were carried out at 30° C. and 21 nM Abl kinase. Final concentrations of the components of the coupled enzyme system were 2.5 mM phosphoenolpyruvate, 200 μM NADH, 60 μg/ml pyruvate kinase and 20 μg/ml lactate dehydrogenase.
An assay stock buffer solution was prepared containing all of the reagents listed above with the exception of ATP and the test compound of interest. The assay stock buffer solution (60 μl) was incubated in a 96 well plate with 2 μl of the test compound of interest at final concentrations typically spanning 0.002 μM to 30 μM at 30° C. for 10 min. Typically, a 12 point titration was prepared by serial dilutions (from 1 mM compound stocks) with DMSO of the test compounds in daughter plates. The reaction was initiated by the addition of 5 μl of ATP (final concentration 110 μM). Rates of reaction were obtained using a Molecular Devices Spectramax plate reader (Sunnyvale, Calif.) over 10 min at 30° C. The Ki values were determined from the residual rate data as a function of inhibitor concentration using nonlinear regression (Prism 3.0, Graphpad Software, San Diego, Calif.).

Aurora-1 (Aurora B) = Aurora-1 (Aurora B) (Homo sapiens, UniProt Q96GD4); assay: Aurora-1 (Aurora B) Inhibition Assay (radiometric); format: biochemical; settings: 800 μM ATP; read-out: Aurora B kinase activity Ki
Aurora-1 (Aurora B), sequence (Q96GD4 whole entry): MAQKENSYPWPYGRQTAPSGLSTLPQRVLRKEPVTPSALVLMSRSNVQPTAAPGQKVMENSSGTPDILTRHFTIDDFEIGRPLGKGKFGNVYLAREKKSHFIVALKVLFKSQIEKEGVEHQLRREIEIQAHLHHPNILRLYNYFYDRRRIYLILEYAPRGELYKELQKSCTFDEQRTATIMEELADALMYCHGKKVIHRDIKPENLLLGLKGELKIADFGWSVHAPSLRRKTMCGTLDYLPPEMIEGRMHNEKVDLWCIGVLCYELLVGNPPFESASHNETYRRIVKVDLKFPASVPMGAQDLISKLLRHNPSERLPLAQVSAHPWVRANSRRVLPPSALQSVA
Method: An assay buffer solution was prepared which consisted of 25 mM HEPES (pH 7.5), 10 mM MgCl2, 0.1% BSA and 10% glycerol. A 22 nM Aurora-B solution, also containing 1.7 mM DTT and 1.5 mM Kemptide (LRRASLG), was prepared in assay buffer. To 22 μL of the Aurora-B solution, in a 96-well plate, was added 2 μl of a compound stock solution in DMSO and the mixture allowed to equilibrate for 10 minutes at 25° C. The enzyme reaction was initiated by the addition of 16 μl stock [γ-^33P]-ATP Pi-ATP solution (˜20 nCi/μL) prepared in assay buffer, to a final assay concentration of 800 μM. The reaction was stopped after 3 hours by the addition of 16 μL 500 mM phosphoric acid and the levels of ^33P incorporation into the peptide substrate were determined by the following method.
A phosphocellulose 96-well plate (Millipore, Cat no. MAPHNOB50) was pre-treated with 100 μL of a 100 mM phosphoric acid prior to the addition of the enzyme reaction mixture (40 μL). The solution was left to soak on to the phosphocellulose membrane for 30 minutes and the plate subsequently washed four times with 200 μL of a 100 mM phosphoric acid. To each well of the dry plate was added 30 μL of Optiphase ‘SuperMix’ liquid scintillation cocktail (Perkin Elmer) prior to scintillation counting (1450 Microbeta Liquid Scintillation Counter, Wallac). Levels of non-enzyme catalyzed background radioactivity were determined by adding 16 μL of the 500 mM phosphoric acid to control wells, containing all assay components (which acts to denature the enzyme), prior to the addition of the [γ-^33P]-ATP solution. Levels of enzyme catalyzed ^33P incorporation were calculated by subtracting mean background counts from those measured at each inhibitor concentration. For each Ki determination 8 data points, typically covering the concentration range 0-10 μM compound, were obtained in duplicate (DMSO stocks were prepared from an initial compound stock of 10 mM with subsequent 1:2.5 serial dilutions). Ki values were calculated from initial rate data by non-linear regression using the Prism software package (Prism 3.0, Graphpad Software, San Diego, Calif.).

[2] = COLO 205, 96 h, 96 hours, read-out: IC50 cell proliferation after 96 hours
[3] = COLO 205, 72 h, 72 hours, read-out: IC50 cell proliferation after 72 hours

SMILES	Ki (Aurora-2 (Aurora A))	IC50 (Colo205 cells; [2])	Ki [1]	Ki (Aurora-1 (Aurora B))	IC50 (Colo205 cells; [3])
CCC(=O)Nc1ccc(Sc2nc(Nc3cc(C)[nH]n3)cc(N3CCC(=O)CC3)n2)cc1 [Compound I-17]	≤ 10 nM	50 to 200 nM		10 to 50 nM	
Cc1cc(Nc2cc(N3CCC4(CC3)CCN(C(C)C)C4)nc(Sc3ccc(NC(=O)C4CC4)cc3)n2)[nH]n1 [Compound I-31]	≤ 10 nM	50 to 200 nM		10 to 50 nM	
CCC(=O)Nc1ccc(Sc2nc(Nc3ncc(C)s3)cc(N3CCC(N4CCCC4)CC3)n2)cc1 [Compound I-49]	≤ 10 nM	≤ 50 nM		10 to 50 nM	
CCC(=O)Nc1ccc(Sc2nc(Nc3cc(C)n[nH]3)cc(N3CCC(O)(C(C)C)CC3)n2)cc1 [Compound I-58]	≤ 10 nM	≤ 50 nM		10 to 50 nM	
CCC(=O)Nc1ccc(Sc2nc(Nc3cc(C)n[nH]3)cc(N3CC[C@H](NC)C3)n2)cc1 [Compound I-22]	≤ 10 nM	50 to 200 nM		10 to 50 nM	
CCC(=O)Nc1ccc(Sc2nc(Nc3cc(C)n[nH]3)cc(N3CCC(N(C)C(C)(C)C)CC3)n2)cc1 [Compound I-47]	≤ 10 nM	≤ 50 nM		10 to 50 nM	
Cc1cc(Nc2cc(N3CCC(N4CCN(C)CC4)CC3)nc(Sc3ccc(NC(=O)C4(C(F)(F)F)CC4)cc3)n2)[nH]n1 [Compound I-64]	≤ 10 nM			10 to 50 nM	≤ 25 nM
CCC(=O)Nc1ccc(Sc2nc(Nc3cc(C)n[nH]3)cc(N3CCC(C)(O)C3)n2)cc1 (stereo not shown) [Compound I-11]	≤ 10 nM	50 to 200 nM		10 to 50 nM	
Cc1cnc(Nc2cc(N3CCC(N4CCOCC4)CC3)nc(Sc3ccc(NC(=O)C4CC4)cc3)n2)s1 [Compound I-4]	≤ 10 nM		< 25 nM		
Cc1cc(Nc2cc(N3CC[C@H](N(C)C)C3)nc(Sc3ccc(NC(=O)c4ccccc4C(F)(F)F)cc3)n2)[nH]n1 [Compound I-70]	≤ 10 nM			≤ 10 nM	≤ 25 nM
Cc1cc(Nc2cc(N3CCCC(F)(F)C3)nc(Sc3ccc(NC(=O)CC(F)(F)F)cc3)n2)[nH]n1 [Compound I-26]	≤ 10 nM	50 to 200 nM		10 to 50 nM	25 to 125 nM
Cc1cc(Nc2cc(N3CCC(F)C3)nc(Sc3ccc(NC(=O)CC(F)(F)F)cc3)n2)[nH]n1 (stereo not shown) [Compound I-78]			< 25 nM		

The next lines start with the values.

Ki (Aurora-2 (Aurora A))	IC50 (Colo205 cells; [2])	Ki [1]	Ki (Aurora-1 (Aurora B))	IC50 (Colo205 cells; [3])	SMILES
≤ 10 nM	50 to 200 nM	< 25 nM			CCC(=O)Nc1ccc(Sc2nc(Nc3cc(C)n[nH]3)cc(N3CC[C@@H](N(C)C)C3)n2)cc1 [Compound I-24]
≤ 10 nM			≤ 10 nM	25 to 125 nM	Cc1cc(Nc2cc(N3CCC(F)C3)nc(Sc3ccc(NC(=O)c4ccccc4C(F)(F)F)cc3)n2)[nH]n1 (stereo not shown) [Compound I-76]
≤ 10 nM	50 to 200 nM	25 to 100 nM			Cc1cnc(Nc2cc(N3CC[C@H](O)C3)nc(Sc3ccc(NC(=O)C4CC4)cc3)n2)s1 [Compound I-12]
≤ 10 nM			10 to 50 nM	25 to 125 nM	Cc1cc(Nc2cc(N3CCC(N4CCOCC4)CC3)nc(Sc3ccc(NC(=O)C4CC4(F)F)cc3)n2)[nH]n1 (stereo not shown) [Compound I-75]
≤ 10 nM	50 to 200 nM		≤ 10 nM		Cc1cc(Nc2cc(N3CCC4(CCN(C)C4)CC3)nc(Sc3ccc(NC(=O)C4CC4)c(F)c3)n2)[nH]n1 [Compound I-32]
≤ 10 nM			≤ 10 nM	25 to 125 nM	Cc1cc(Nc2cc(N3CCC4(CC3)OCCO4)nc(Sc3ccc(NC(=O)CC(F)(F)F)cc3)n2)[nH]n1 [Compound I-79]
≤ 10 nM	≤ 50 nM		10 to 50 nM		CCC(=O)Nc1ccc(Sc2nc(Nc3cc(C)n[nH]3)cc(N3CCC(C(C)(C)OC)CC3)n2)cc1 [Compound I-45]
≤ 10 nM	≤ 50 nM		10 to 50 nM		CCC(=O)Nc1ccc(Sc2nc(Nc3cc(C4CC4)n[nH]3)cc(N3CC[C@H](N4CCCC4)C3)n2)cc1 [Compound I-62]
≤ 10 nM	≤ 50 nM		10 to 50 nM		CCC(=O)Nc1ccc(Sc2nc(Nc3cc(C)n[nH]3)cc(N3CCC(N4CCOCC4)CC3)n2)cc1 [Compound I-40]
≤ 10 nM			10 to 50 nM	25 to 125 nM	Cc1cc(Nc2cc(N3CCC(F)(F)CC3)nc(Sc3ccc(NC(=O)CC(F)(F)F)cc3)n2)[nH]n1 [Compound I-84]
≤ 10 nM	50 to 200 nM		≤ 10 nM		CCC(=O)Nc1ccc(Sc2nc(Nc3cc(C4CC4)n[nH]3)cc(N3CCC(F)C3)n2)cc1 (stereo not shown) [Compound I-20]
≤ 10 nM	50 to 200 nM		10 to 50 nM		CCC(=O)Nc1ccc(Sc2nc(Nc3cc(C)n[nH]3)cc(N3CCC(C)(O)CC3)n2)cc1 [Compound I-21]
≤ 10 nM	50 to 200 nM		10 to 50 nM		CCC(=O)Nc1ccc(Sc2nc(Nc3cc(C)[nH]n3)cc(N3CCC4(CC3)OCCO4)n2)cc1 [Compound I-15]
≤ 10 nM	≤ 50 nM		10 to 50 nM		Cc1cc(Nc2cc(N3CCC4(CCN(C)C4)CC3)nc(Sc3ccc(NC(=O)C4CC4)cc3F)n2)[nH]n1 [Compound I-54]
